Results from ChEMBL document CHEMBL3885861, “Open TG-GATES”.

Species on record: Rattus norvegicus
Test: Open TG-GATES - Regimen: Single
Assay type: toxicity, organism-based, Sprague-Dawley
Parameters: regimen Single, gender Male, age 6 weeks
Settings: in vivo, po, 500 mg/kg, route gavage, dose level High; for APTT / Bas / Eos / Fbg / Hb / Ht / Lym / MCH / MCHC / MCV / Mono / Neu / PT / Plat / RBC / Ret / WBC: tissue Blood; for KIDNEY_L / KIDNEY_R / KIDNEY_TOTAL: tissue Kidney; for LIVER: tissue Liver; for A/G / ALP / ALT / AST / BUN / CRE / Ca / Cl / DBIL / GLC / IP / K / LDH / Na / PL / RALB / TBIL / TC / TG / TP / gamma-GTP: tissue Plasma

CN1C(=O)CCS(=O)(=O)C1c1ccc(Cl)cc1 (configuration not stated) [CHLORMEZANONE]
TERMINAL_BW (3 h): 225.7 g | APTT (3 h): 17.2 s | Bas (3 h): 0% | Eos (3 h): 1% | Fbg (3 h): 308.4 mg/dL | Hb (3 h): 13.4 g/dL | Ht (3 h): 40.2% | Lym (3 h): 72.8% | MCH (3 h): 21.9 pg | MCHC (3 h): 33.4% | MCV (3 h): 65.4 fL | Mono (3 h): 3.8% | Neu (3 h): 21.8% | PT (3 h): 13.2 s | Plat (3 h): 113.8 x10_4/uL | RBC (3 h): 614.4 x10_4/ul | Ret (3 h): 8.6% | WBC (3 h): 42.6 x10_2/uL | KIDNEY_L (3 h): 1 g | KIDNEY_R (3 h): 1 g | KIDNEY_TOTAL (3 h): 2 g | LIVER (3 h): 9.8 g | A/G (3 h): 0.9 | ALP (3 h): 1556.6 IU/L | ALT (3 h): 41.2 IU/L | AST (3 h): 63.6 IU/L | BUN (3 h): 9.6 mg/dL | CRE (3 h): 0.1 mg/dL | Ca (3 h): 10.8 mg/dL | Cl (3 h): 102 meq/L | DBIL (3 h): 0.012 mg/dL | GLC (3 h): 212.4 mg/dL | IP (3 h): 10.3 mg/dL | K (3 h): 3.9 meq/L | LDH (3 h): 54.2 IU/L | Na (3 h): 140.8 meq/L | PL (3 h): 145 mg/dL | RALB (3 h): 2.5 g/dL | TBIL (3 h): 0.038 mg/dL | TC (3 h): 76.4 mg/dL | TG (3 h): 63.6 mg/dL | TP (3 h): 5.3 g/dL | gamma-GTP (3 h): 1 IU/L | TERMINAL_BW (6 h): 226.3 g | APTT (6 h): 16.7 s | Bas (6 h): 0% | Eos (6 h): 1% | Fbg (6 h): 340.6 mg/dL | Hb (6 h): 13.2 g/dL | Ht (6 h): 39.2% | Lym (6 h): 72.6% | MCH (6 h): 21.2 pg | MCHC (6 h): 33.8% | MCV (6 h): 62.7 fL | Mono (6 h): 2.6% | Neu (6 h): 23.4% | PT (6 h): 13.6 s | Plat (6 h): 111.4 x10_4/uL | RBC (6 h): 625.4 x10_4/ul | Ret (6 h): 8.1% | WBC (6 h): 28.5 x10_2/uL | KIDNEY_L (6 h): 0.9 g | KIDNEY_R (6 h): 0.9 g | KIDNEY_TOTAL (6 h): 1.9 g | LIVER (6 h): 9.9 g | A/G (6 h): 0.9 | ALP (6 h): 1317.4 IU/L | ALT (6 h): 44 IU/L | AST (6 h): 66.8 IU/L | BUN (6 h): 8 mg/dL | CRE (6 h): 0.1 mg/dL | Ca (6 h): 10.8 mg/dL | Cl (6 h): 101.2 meq/L | DBIL (6 h): 0.006 mg/dL | GLC (6 h): 218.4 mg/dL | IP (6 h): 10.6 mg/dL | K (6 h): 3.6 meq/L | LDH (6 h): 56.4 IU/L | Na (6 h): 139.6 meq/L | PL (6 h): 160 mg/dL | RALB (6 h): 2.5 g/dL | TBIL (6 h): 0.03 mg/dL | TC (6 h): 93.2 mg/dL | TG (6 h): 39.6 mg/dL | TP (6 h): 5.4 g/dL | gamma-GTP (6 h): 1 IU/L | TERMINAL_BW (9 h): 229 g | APTT (9 h): 16.4 s | Bas (9 h): 0% | Eos (9 h): 0.6% | Fbg (9 h): 317.8 mg/dL | Hb (9 h): 13.4 g/dL | Ht (9 h): 39.2% | Lym (9 h): 68.8% | MCH (9 h): 21.9 pg | MCHC (9 h): 34.2% | MCV (9 h): 64 fL | Mono (9 h): 2.8% | Neu (9 h): 27.6% | PT (9 h): 13.6 s | Plat (9 h): 127.7 x10_4/uL | RBC (9 h): 613 x10_4/ul | Ret (9 h): 8.1% | WBC (9 h): 40.7 x10_2/uL | KIDNEY_L (9 h): 1 g | KIDNEY_R (9 h): 1 g | KIDNEY_TOTAL (9 h): 1.9 g | LIVER (9 h): 10.1 g | A/G (9 h): 0.9 | ALP (9 h): 1555.8 IU/L | ALT (9 h): 39.8 IU/L | AST (9 h): 66 IU/L | BUN (9 h): 10 mg/dL | CRE (9 h): 0.1 mg/dL | Ca (9 h): 11 mg/dL | Cl (9 h): 100.4 meq/L | DBIL (9 h): 0.014 mg/dL | GLC (9 h): 255.4 mg/dL | IP (9 h): 10.3 mg/dL | K (9 h): 3.8 meq/L | LDH (9 h): 66.4 IU/L | Na (9 h): 139 meq/L | PL (9 h): 165.8 mg/dL | RALB (9 h): 2.6 g/dL | TBIL (9 h): 0.034 mg/dL | TC (9 h): 90.6 mg/dL | TG (9 h): 89.8 mg/dL | TP (9 h): 5.5 g/dL | gamma-GTP (9 h): 1.2 IU/L | TERMINAL_BW (24 h): 214.2 g | APTT (24 h): 21.3 s | Bas (24 h): 0% | Eos (24 h): 0.6% | Fbg (24 h): 258.6 mg/dL | Hb (24 h): 14.2 g/dL | Ht (24 h): 40.4% | Lym (24 h): 73.4% | MCH (24 h): 21.7 pg | MCHC (24 h): 35.2% | MCV (24 h): 61.9 fL | Mono (24 h): 4% | Neu (24 h): 21.8% | PT (24 h): 14.3 s | Plat (24 h): 121 x10_4/uL | RBC (24 h): 653.6 x10_4/ul | Ret (24 h): 7.3% | WBC (24 h): 73.2 x10_2/uL | KIDNEY_L (24 h): 0.9 g | KIDNEY_R (24 h): 0.9 g | KIDNEY_TOTAL (24 h): 1.9 g | LIVER (24 h): 9.7 g | A/G (24 h): 0.8 | ALP (24 h): 1746 IU/L | ALT (24 h): 46.2 IU/L | AST (24 h): 89.6 IU/L | BUN (24 h): 14.2 mg/dL | CRE (24 h): 0.2 mg/dL | Ca (24 h): 11.2 mg/dL | Cl (24 h): 104.6 meq/L | DBIL (24 h): 0.048 mg/dL | GLC (24 h): 193.2 mg/dL | IP (24 h): 8 mg/dL | K (24 h): 3.9 meq/L | LDH (24 h): 113 IU/L | Na (24 h): 142 meq/L | PL (24 h): 146.2 mg/dL | RALB (24 h): 2.6 g/dL | TBIL (24 h): 0.058 mg/dL | TC (24 h): 69.6 mg/dL | TG (24 h): 239.2 mg/dL | TP (24 h): 5.8 g/dL | gamma-GTP (24 h): 1 IU/L
